For 9 molecules, IC50 and Kd results are on record in US9975902B2, “Compounds for the inhibition of cyclophilins and uses thereof” (Merck Patent GmbH, priority 2016, dated 2018).

A value given as a limit tells only on which side of the number the result lay.

Test [1] addresses T1, CypD (Homo sapiens (Human), UniProt P30405). As to the kind of experiment: CypD binding assay (competition fluorescence polarisation with fluorescine labelled cyclosporin). As for the experimental part:
The binding capacity of the compounds was measured using a competition Fluorescence-Polarisation based assay with fluorescine labelled cyclosporin. The protocol used was adapted from Hausch et al, Med Chem lett 2010, p 536.

Test [2] deals with T1, CypD. Description: SPR binding. The following applies: steady state KD, read-out: SPR CypD (KDss).
Description: Binding was confirmed on an SPR surface using a protocol adapted from Mori et al., J. Biomolecular Screening, 2009, p.

T1 sequence (P30405 30-207): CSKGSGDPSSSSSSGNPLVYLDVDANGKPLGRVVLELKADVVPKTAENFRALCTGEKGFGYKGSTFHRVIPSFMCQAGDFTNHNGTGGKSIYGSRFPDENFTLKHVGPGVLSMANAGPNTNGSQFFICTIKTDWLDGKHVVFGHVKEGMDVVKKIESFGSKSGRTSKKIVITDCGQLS

In turn, `Nc1ccc(CNC(=O)CN2C(=O)C3C4CCC(O4)C3C2=O)cc1` (stereo not drawn) [Compound 8, N-(4-Amino-benzyl)-2-(3,5-dioxo-10-oxa-4-aza-tricyclo[5.2.1.02,6]dec-4-yl)-acetamide] returned a half-inhibitory concentration (IC50) at CypD [1] of 10 to 200 µM. Moreover, on CypD [2], the Kd lay in the range of 10 to 200 µM.
Take `CCC1Oc2cc(C(C)NC(=O)CN3C(=O)[C@@H]4[C@@H]5CC[C@@H](C5)[C@@H]4C3=O)ccc2NC1=O` (stereo partly drawn) [Compound 11, 2-endo-(3,5-Dioxo-4-aza-tricyclo[5.2.1.02,6]dec-4-yl)-N-[1-(2-ethyl-3-oxo-3,4-dihydro-2H-benzo[1,4]oxazin-7-yl)-ethyl]-acetamide]: at CypD [1], the IC50 was 10 to 200 µM. The Kd at CypD [2] lay within 10 to 200 µM.
Take `CCN1Cc2cc(CNC(=O)CN3C(=O)[C@@H]4[C@H]5CC[C@H](C5)[C@@H]4C3=O)ccc2NCCC1=O` [Compound 6]: the IC50 at CypD [1] lay within 10 to 200 µM. Also, the Kd on CypD [2] lay in the range of 10 to 200 µM.
As for `O=C(CN1C(=O)[C@@H]2[C@@H]3CC[C@@H](C3)[C@@H]2C1=O)NCc1ccc2c(c1)[C@H]1C[C@@H](N2)[C@H](O)CO1` [Compound 3], the concentration for half-maximal inhibition (IC50) on CypD [1] is < 10 µM. Moreover, at CypD [2], the Kd is < 10 µM.
As for `Nc1ccc(C2(NC(=O)CN3C(=O)[C@@H]4[C@@H]5CC[C@@H](C5)[C@@H]4C3=O)CC2)cc1` [Compound 5, 2-endo-(3,5-Dioxo-4-aza-tricyclo[5.2.1.02,6]dec-4-yl)-N-[1-(4-amino-phenyl)-cyclopropyl]-acetamide], on CypD [1], the IC50 fell in the range of 10 to 200 µM. For the same molecule, on CypD [2], the Kd was in the range of 10 to 200 µM.
On to `O=C(CN1C(=O)[C@@H]2[C@H]3CC[C@H](C3)[C@@H]2C1=O)NCc1ccc2c(c1)[C@H]1C[C@@H](N2)[C@H](O)CO1` [Compound 1, 2-exo-(3,5-Dioxo-4-aza-tricyclo[5.2.1.02,6]dec-4-yl)-N-((1R,9R,10S)-10-hydroxy-12-oxa-8-aza-tricyclo[7.3.1.02,7]trideca-2(7),3,5-trien-4-ylmethyl)-acetamide], for which the IC50 at CypD [1] is < 10 µM. At CypD [2], the Kd is < 10 µM.
`O=C(CN1C(=O)[C@@H]2[C@@H]3CC[C@@H](C3)[C@@H]2C1=O)NCCc1ccc2c(c1)CCCN2` [Compound 9, 2-endo-(3,5-Dioxo-4-aza-tricyclo[5.2.1.02,6]dec-4-yl)-N-[2-(1,2,3,4-tetrahydro-quinolin-6-yl)-ethyl]-acetamide] had a half-maximal inhibitory concentration (IC50) on CypD [1] of 10 to 200 µM. The Kd at CypD [2] was in the range of 10 to 200 µM.
On CypD [1], `Nc1ccc(CCNC(=O)CN2C(=O)[C@@H]3[C@@H]4CC[C@@H](C4)[C@@H]3C2=O)cc1` [Compound 10, N-endo-[2-(4-Amino-phenyl)-ethyl]-2-(3,5-dioxo-4-aza-tricyclo[5.2.1.02,6]dec-4-yl)-acetamide] gave an IC50 of 10 to 200 µM. For the same molecule, the Kd on CypD [2] lay within 10 to 200 µM.
In the case of `Nc1ccc(CCNC(=O)CN2C(=O)C3CCCCC3C2=O)cc1` (stereo not drawn) [Compound 7, N-[2-(4-Amino-phenyl)-ethyl]-2-(1,3-dioxo-octahydro-isoindol-2-yl)-acetamide], the IC50 on CypD [1] was 10 to 200 µM. For the same molecule, the Kd at CypD [2] was in the range of 10 to 200 µM.
